Data as given in the supplement of paper PMC5908809.

How the values were obtained:
[1] = test system: normal NK cells expanded with K562-aAPC; assay: percent inhibition of viability; higher = more inhibition; details: 72 h, IL-2 2.5 ng/mL
Description: (§1)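 Drug sensitivity and resistance testing on K562-aAPC-expanded normal NK cells: 5 concentrations (10-fold steps over a 10,000-fold range), 72 h at 37 °C, viability by CellTiter-Glo normalised to DMSO and benzethonium chloride controls; DSS from the fitted curve.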

[2] = test system: YT (IL-2 2.5 ng/mL); assay: drug sensitivity score (DSS) (DSS units); higher = more sensitive; extreme values may be limits of the assay; details: 72 h
[3] = test system: IMC-1 (IL-2 20 ng/mL); assay: as above; details: 72 h
[4] = test system: normal primary NK cells, pool 2 (3 donors) (IL-2 2.5 ng/mL); assay: as above; details: 72 h
[5] = test system: NK-92 (IL-2 2.5 ng/mL); assay: as above; details: 72 h
[6] = test system: SNK-6 (IL-2 2.5 ng/mL); assay: as above; details: 72 h
[7] = test system: normal primary NK cells, pool 3 (3 donors) (IL-2 2.5 ng/mL); assay: as above; details: 72 h
[8] = test system: DERL-7 (IL-2 2.5 ng/mL); assay: as above; details: 72 h
[9] = test system: NKL (IL-2 2.5 ng/mL); assay: as above; details: 72 h
[10] = test system: NK-YS (IL-2 2.5 ng/mL); assay: as above; details: 72 h
[11] = test system: KAI3 (IL-2 2.5 ng/mL); assay: as above; details: 72 h
[12] = test system: normal primary NK cells, pool 1 (3 donors) (IL-2 2.5 ng/mL); assay: as above; details: 72 h
[13] = test system: normal primary NK cells, pool 1 (3 donors), resting (IL-2 0 ng/mL); assay: as above; details: 72 h
[14] = test system: KHYG-1 (IL-2 2.5 ng/mL); assay: as above; details: 72 h
[15] = test system: YT (IL-2 2.5 ng/mL); assay: percent inhibition of viability; higher = more inhibition; details: 72 h
[16] = test system: IMC-1 (IL-2 20 ng/mL); assay: as above; details: 72 h
[17] = test system: normal primary NK cells, pool 2 (3 donors) (IL-2 2.5 ng/mL); assay: as above; details: 72 h
[18] = test system: NK-92 (IL-2 2.5 ng/mL); assay: as above; details: 72 h
[19] = test system: SNK-6 (IL-2 2.5 ng/mL); assay: as above; details: 72 h
[20] = test system: normal primary NK cells, pool 3 (3 donors) (IL-2 2.5 ng/mL); assay: as above; details: 72 h
[21] = test system: DERL-7 (IL-2 2.5 ng/mL); assay: as above; details: 72 h
[22] = test system: NKL (IL-2 2.5 ng/mL); assay: as above; details: 72 h
[23] = test system: NK-YS (IL-2 2.5 ng/mL); assay: as above; details: 72 h
[24] = test system: KAI3 (IL-2 2.5 ng/mL); assay: as above; details: 72 h
[25] = test system: normal primary NK cells, pool 1 (3 donors) (IL-2 2.5 ng/mL); assay: as above; details: 72 h
[26] = test system: normal primary NK cells, pool 1 (3 donors), resting (IL-2 0 ng/mL); assay: as above; details: 72 h
[27] = test system: KHYG-1 (IL-2 2.5 ng/mL); assay: as above; details: 72 h
[28] = test system: normal NK cells expanded with K562-aAPC; assay: drug sensitivity score (DSS) (DSS units); higher = more sensitive; extreme values may be limits of the assay; details: 72 h; IL-2 2.5 ng/mL
Description: as §1

CN(C)c1cc2c(cc1Sc1nc3c(N)nccc3n1CCNCC(C)(C)C)OCO2 [CUDC-305] (max concentration tested 10000 nM)
percent inhibition of viability [%]
Details | 1 nM | 10 nM | 100 nM | 1000 nM | 10000 nM
[1] | -9.36 | -5.57 | 18.3 | 98.9 | 99.5
[15] | -8.17 | -8.94 | 5.06 | 96.3 | 102
[16] | -5.61 | -0.06 | 1.88 | 100 | 101
[17] | -9.1 | 7.74 | 23 | 77.7 | 86.7
[18] | -12 | -2.97 | 13.8 | 103 | 107
[19] | -24.7 | -25.3 | -1.59 | 89.5 | 89.3
[20] | -11.7 | 2.98 | 12 | 77.3 | 88.5
[21] | -1.72 | -0.9 | 22.4 | 101 | 101
[22] | -12.3 | -13.6 | 3.23 | 97.1 | 95.2
[23] | -4.26 | -6.26 | 23.7 | 108 | 109
[24] | -0.9 | -0.19 | 41.5 | 108 | 108
[25] | 3.05 | 11.3 | 19.7 | 84.3 | 92.8
[26] | -0.67 | 17.6 | 27.6 | 43.1 | 69.2
[27] | -1.89 | -3.69 | 6.61 | 107 | 111

Details | drug sensitivity score
[2] | 18.2
[3] | 18.2
[4] | 17
[5] | 20.4
[6] | 16
[7] | 15.8
[8] | 21.5
[9] | 17.9
[10] | 21.7
[11] | 23.5
[12] | 17.8
[13] | 12.7
[14] | 19.4
[28] | 20.9

O=C(O)c1ccc(O)c2ncccc12 [IOX-1] (max concentration tested 100000 nM)
percent inhibition of viability [%]
Details | 10 nM | 100 nM | 1000 nM | 10000 nM | 100000 nM
[1] | 2.28 | -1.61 | -3.75 | -2.77 | 37.3
[15] | -3.65 | -2.89 | -3.48 | -1.62 | 93.9
[16] | -3.09 | -5.78 | -3.15 | -12.9 | 98.3
[17] | -7.65 | 2.85 | -9.5 | -2.84 | 18.6
[18] | -6.93 | 3.17 | -9.38 | 5.58 | 84.7
[19] | 5.81 | 6.03 | 15.1 | 13.8 | 96.1
[20] | -7.55 | -4.61 | -5.18 | 1.2 | 19.5
[21] | 3.2 | 6.07 | 1.59 | 7.49 | 60.9
[22] | 1.44 | -6.7 | -0.16 | 3.16 | 91.7
[23] | -2.09 | 1.71 | -3.7 | -0.87 | 90
[24] | -3.64 | -1.76 | 6.25 | 18.8 | 90.3
[25] | -3.62 | -13.1 | 0.64 | 8.14 | 36.8
[26] | -3.86 | -11 | -13.3 | 21.7 | 44.1
[27] | -4.24 | 1.11 | -3.63 | 4.25 | 97.2

Details | drug sensitivity score
[2] | 5.1
[3] | 4.66
[4] | 0.36
[5] | 5.53
[6] | 7.64
[7] | 0.69
[8] | 4.57
[9] | 5.52
[10] | 4.95
[11] | 8.02
[12] | 3.07
[13] | 5.03
[14] | 5.99
[28] | 1.59

CC1(C)CCC(CN2CCN(c3ccc(C(=O)NS(=O)(=O)c4ccc(NCC5CCOCC5)c([N+](=O)[O-])c4)c(Oc4cnc5[nH]ccc5c4)c3)CC2)=C(c2ccc(Cl)cc2)C1 [Venetoclax] (max concentration tested 1000 nM)
percent inhibition of viability [%]
Details | 0.1 nM | 1 nM | 10 nM | 100 nM | 1000 nM
[1] | 3.87 | -7.3 | -4.26 | -4.09 | 18.9
[16] | -3.1 | 2.12 | -1.24 | -0.5 | 5.01
[17] | -15.6 | -3.12 | 0.73 | 7.62 | 31.3
[20] | -10.2 | -7.52 | -5.3 | 1.76 | 14.7

Details | drug sensitivity score
[3] | 0
[4] | 2.56
[7] | 0.37
[28] | 0.35

Cn1c(=O)c(F)c(Nc2ccc(I)cc2F)c2c(=O)n(C[C@@H](O)CO)cnc21 [TAK-733] (max concentration tested 1000 nM)
percent inhibition of viability [%]
Details | 0.1 nM | 1 nM | 10 nM | 100 nM | 1000 nM
[1] | -0.54 | 1.65 | 5.46 | 3.7 | 18.7
[15] | -3.29 | 0.91 | 1.73 | 6.99 | 14.3
[16] | -1.32 | 1.37 | 0.58 | 3.83 | 18.9
[17] | -4.31 | -4.06 | 11.2 | 17 | 13.8
[18] | 3 | 0.98 | -25.3 | -5.54 | 19.1
[19] | 6 | 0.96 | -6.2 | 3.19 | -10.3
[20] | -10.4 | -14.4 | -11.3 | 2.73 | 8.36
[21] | 3.05 | 13.4 | 23 | 41.5 | 47.2
[22] | 0.9 | 12 | 40.6 | 60.1 | 81.3
[23] | -2.42 | 2.48 | 3.61 | 10.7 | 25.6
[24] | 2.03 | 4.38 | 17.2 | 23.1 | 29.4
[25] | -3.53 | 3.59 | 5.44 | 11.3 | 7.77
[26] | -1.91 | 4.44 | -3.15 | -6.45 | -3.7
[27] | 4.66 | 9.31 | 20.6 | 48.8 | 64.9

Details | drug sensitivity score
[2] | 0.35
[3] | 1
[4] | 2.88
[5] | 0.33
[6] | 0
[7] | 0
[8] | 10.7
[9] | 17.2
[10] | 1.77
[11] | 5.51
[12] | 0.17
[13] | 0
[14] | 11.7
[28] | 0.89

CC(C)C[C@@H](C(=O)N[C@H](C(=O)OC1CCCC1)c1ccccc1)[C@H](O)C(=O)NO [Tosedostat] (max concentration tested 10000 nM)
percent inhibition of viability [%]
Details | 1 nM | 10 nM | 100 nM | 1000 nM | 10000 nM
[1] | -1.88 | 6.85 | 7.57 | 15.4 | 28.1
[15] | -4.4 | 5.94 | -1.61 | 16.7 | 64.4
[16] | 1.56 | 3.44 | 2.86 | -8.8 | 34.8
[17] | -1.97 | -1.61 | 3.93 | 27.9 | 53.1
[18] | -7.95 | -5.73 | 1.42 | 28.5 | 39.5
[19] | 15.8 | -24.2 | -35 | -26.7 | -18.3
[20] | -8.47 | -19.6 | -9.22 | 2.66 | 28.9
[21] | 0.91 | 28.1 | 38.8 | 57.2 | 60.4
[22] | 2.1 | 17 | 15 | 11.9 | 77.3
[23] | 1.05 | 7.39 | 20.1 | 32.9 | 43.8
[24] | -9.18 | -2.01 | 1.91 | 5.58 | 19.7
[25] | 0.7 | -2.5 | 14.2 | 32.4 | 71.7
[26] | -9.12 | -11.9 | 19.5 | 68.8 | 83
[27] | -2.21 | -0.34 | 2.84 | 38.9 | 56

Details | drug sensitivity score
[2] | 6.11
[3] | 1.21
[4] | 6.04
[5] | 5.36
[6] | 0
[7] | 1.63
[8] | 18
[9] | 6.28
[10] | 8.33
[11] | 1.15
[12] | 8
[13] | 15.1
[14] | 7.83
[28] | 2.81
